pKi: −log10 of the molar value.
Columns and labels:
Acetylcholinesterase = Acetylcholinesterase (Homo sapiens, UniProt P22303)
Description: Inhibition of human recombinant AChE

Cholinesterase = Cholinesterase (Homo sapiens, UniProt P06276)
Description: Inhibition of human recombinant BChE

[1] = biological target: Cholinesterases; ACHE & BCHE (Homo sapiens) (UniProt P06276+P22303); test: Selectivity ratio of Ki for human recombinant AChE to Ki for human recombinant BChE
Chain of Cholinesterases; ACHE & BCHE (Homo sapiens) (P06276 whole entry, looked up): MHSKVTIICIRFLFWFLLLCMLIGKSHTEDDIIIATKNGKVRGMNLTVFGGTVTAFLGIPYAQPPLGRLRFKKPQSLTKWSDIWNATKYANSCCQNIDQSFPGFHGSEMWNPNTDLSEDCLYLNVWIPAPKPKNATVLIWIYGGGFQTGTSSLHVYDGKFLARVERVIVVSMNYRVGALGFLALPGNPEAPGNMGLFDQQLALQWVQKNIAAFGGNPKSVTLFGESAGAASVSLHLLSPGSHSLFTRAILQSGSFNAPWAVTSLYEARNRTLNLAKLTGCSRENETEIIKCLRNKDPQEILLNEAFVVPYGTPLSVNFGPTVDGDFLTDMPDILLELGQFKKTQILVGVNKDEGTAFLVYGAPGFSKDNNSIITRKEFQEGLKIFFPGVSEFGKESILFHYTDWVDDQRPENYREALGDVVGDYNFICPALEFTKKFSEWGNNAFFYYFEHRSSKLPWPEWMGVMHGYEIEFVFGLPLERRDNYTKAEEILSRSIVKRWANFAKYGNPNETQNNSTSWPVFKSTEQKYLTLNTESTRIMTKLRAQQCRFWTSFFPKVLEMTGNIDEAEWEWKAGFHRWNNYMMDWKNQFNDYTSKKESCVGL
Chain of Cholinesterases; ACHE & BCHE (Homo sapiens) (P22303 whole entry, looked up): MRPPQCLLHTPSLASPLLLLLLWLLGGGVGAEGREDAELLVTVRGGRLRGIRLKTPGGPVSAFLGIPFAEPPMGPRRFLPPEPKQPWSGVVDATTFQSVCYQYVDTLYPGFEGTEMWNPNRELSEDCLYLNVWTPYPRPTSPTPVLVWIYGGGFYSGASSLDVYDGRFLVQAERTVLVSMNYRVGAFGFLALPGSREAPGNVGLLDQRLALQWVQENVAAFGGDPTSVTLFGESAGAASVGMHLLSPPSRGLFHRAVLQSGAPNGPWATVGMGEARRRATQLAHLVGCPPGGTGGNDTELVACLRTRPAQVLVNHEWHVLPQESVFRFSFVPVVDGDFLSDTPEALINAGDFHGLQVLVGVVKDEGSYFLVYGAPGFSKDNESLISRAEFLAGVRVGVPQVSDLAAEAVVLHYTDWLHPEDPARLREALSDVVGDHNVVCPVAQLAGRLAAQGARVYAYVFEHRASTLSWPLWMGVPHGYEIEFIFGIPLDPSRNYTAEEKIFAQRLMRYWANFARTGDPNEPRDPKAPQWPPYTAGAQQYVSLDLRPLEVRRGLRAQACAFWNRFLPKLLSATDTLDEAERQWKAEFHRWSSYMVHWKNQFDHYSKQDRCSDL

Chain of Cholinesterase (P06276 whole entry): as the sequence (P06276 whole entry, looked up) above
Chain of Acetylcholinesterase (P22303 whole entry): as the sequence (P22303 whole entry, looked up) above

Row | SMILES | pKi (Acetylcholinesterase) | pKi (Cholinesterase) | Ratio Ki [1]
1 | CC(C)(C)OC(=O)N[C@@H](Cc1c[nH]c2ccccc12)C(=O)NCCNc1c2c(nc3ccccc13)CCCC2 | 6.89 | 8.73 | 
2 | N[C@@H](Cc1c[nH]c2ccccc12)C(=O)NCCC(=O)Nc1c2c(nc3ccccc13)CCCC2 | 4.47 | 6.76 | 197
3 | CC(C)(C)OC(=O)N[C@@H](CCC(=O)NCCNc1c2c(nc3ccccc13)CCCC2)C(=O)NCCNc1c2c(nc3ccccc13)CCCC2 | 7.81 | 7.90 | 
4 | CC(C)(C)OC(=O)N[C@@H](Cc1c[nH]c2ccccc12)C(=O)NCCC(=O)Nc1c2c(nc3ccccc13)CCCC2 | 5.10 | 6.35 | 
5 | N[C@@H](CCC(=O)NCCNc1c2c(nc3ccccc13)CCCC2)C(=O)NCCNc1c2c(nc3ccccc13)CCCC2 | 8.21 | 7.60 | 
6 | N[C@@H](Cc1ccc2ccccc2c1)C(=O)NCC(=O)Nc1c2c(nc3ccccc13)CCCC2 | 4.95 | 6.60 | 
7 | O=C(CNC(=O)[C@@H]1Cc2ccccc2CN1)Nc1c2c(nc3ccccc13)CCCC2 | 5.38 | 6.24 | 
8 | CN[C@@H](Cc1c[nH]c2ccccc12)C(=O)NCC(=O)Nc1c2c(nc3ccccc13)CCCC2 | 5.48 | 5.75 | 
9 | O=C(NCCCCCNc1c2c(nc3ccccc13)CCCC2)[C@@H]1CCCN1CCNc1c2c(nc3ccccc13)CCCC2 | 8.17 | 8.75 | 
10 | N[C@@H](Cc1c[nH]c2ccccc12)C(=O)NCCNc1c2c(nc3ccccc13)CCCC2 | 6.55 | 8.88 | 210
11 | N[C@@H](Cc1ccccc1)C(=O)NCC(=O)Nc1c2c(nc3ccccc13)CCCC2 | 5.72 | 6.15 | 
12 | N[C@@H](Cc1c[nH]c2ccccc12)C(=O)NCC(=O)Nc1c2c(nc3ccccc13)CCCC2 | 5.65 | 6.60 | 
13 | CN[C@@H](Cc1ccccc1)C(=O)NCC(=O)Nc1c2c(nc3ccccc13)CCCC2 | 5.20 | 5.92 | 
